Data as given in patent publication US12419308B2, “Phenylpyrazole insecticide compounds and compositions” (priority 2023, dated 2025).
Read-outs that look alike come from different tables or passages of the source.

Tests used:
[1] = Egg concentration analysis from topically treated chickens; type: in vivo; details: eggs from Day 5
Experimental: One animal is left untreated as a negative control.
A modified and optimized QuEChERS protocol was employed to extract the compounds from eggs. The shell is manually removed, and then each egg is transferred to a clean beaker and homogenized with an electric mixer for small volumes. 5 grams of homogenized egg is put into a 50 mL Falcon tube, and 5 mL of water is added and the samples are shaken for 10 minutes. Next, 10 mL of acetonitrile is added and the samples are shaken again for 10 minutes. Then the roQ salts (4.0 g MgSO4, 1.0 g NaCl, 1.0 SCTD and 0.5 g SCDS, Phenomenex P/N KS08909) are added to each sample, and the mixture is well shaken for 10 minutes. Samples are then centrifuged at 2500 g for 5 minutes at room temperature, and the supernatant is transferred to an HPLC vial for analysis. The same HPLC-MS method is used as described above.
One egg from two chickens is analyzed: one chicken treated with Fipronil and one chicken treated with the Compound of Example 1. The eggs are both from Day 5. The results are shown in the following tables expressed as relative LC-MS peak area: […]

[2] = tested on: Human Cryopreserved Hepatocytes; test: Metabolic stability in human cryopreserved hepatocytes; type: in vitro ADME
Experimental: The metabolic stability of the Compounds of Examples 1 and 4 is therefore evaluated to determine whether metabolic degradation results in metabolites of concern.
Briefly, Human Cryopreserved Hepatocytes (Gibco, lot. HUE125) are added to incubation wells in a 96-well assay plate at a density of 500,000 cells/mL in William's E Medium. […] The wells are incubated at 37° C. and stop solution is added to wells at time points: 0, 30, 60, 120, 240 min. The stop solution is ice-cold solution containing 0.5 μM labetalol in acetonitrile (100 μL/well) (2:1, vol/vol). Each time point is tested in triplicate. Analysis is carried out by LC-MS.
• Instrument: QExactive • Column: Luna Omega 1.6 μm polar C18 100 Å (150×2.1 mm) • Column temperature: 40° C. • Column No: 102+pre-column installed • Injection volume: 2 μl • Flux: 0.40 mL/min • Polarity: Negative • Fluent A: water Milli Q+0.1% FA • Fluent B: ACN+0.1% FA • Acquisition method: Full MS+DDS on the IL obtained with MassMetaSite (peak others ON).

[3] = tested on: adult worker honeybees, Apis mellifera L; details: contact
From the text: In accordance with OECD Test Guidelines No. 213 and 214, the test is considered valid if: (1) the average mortality of the control groups is ≤10% at the end of the test; and the average, control-corrected mortality of the reference item groups is ≥50% at the end of the test, at the tested dose (internal validity criteria according to POS BT200).
Young Apis mellifera L. worker honeybees are randomly collected in the morning of use or the day before from an adequately fed, healthy diseases-free and queen right beehive, not treated with chemical substances. Hives from an established apiary colony are used, and the colonies are inspected periodically, according to standard bee-keeping practices. All colonies are kept outside under field conditions and bees collect food from the environment. The last treatment against Varroa mites was done in November 2023. The bees are fed ad libitum with a water sucrose solution 50% w/v (or 500 g/L), prepared with tap water.
Adult worker honeybees are exposed to three increasing doses of the test item (see Table 2) by direct application to the thorax (droplets, see section 4.5.2). One control group is treated with propanol-water solution (ratio 80%-20%) in addition to test item groups.
Bee mortality is recorded after 4, 24 and 48 hours, and compared with the control value. If the mortality rate increases by more than 10% between 24 and 48 hours, whilst the control mortality rate remains ≤10%, the is extended to a maximum of 96 hours.
The test item is diluted in propanol-water solution (ratio 80%-20%) to prepare the contact solutions.
The bees used for the contact test are anaesthetized with carbon dioxide and individually treated by topical application of 2 μL of the test solutions onto the thorax using a micro applicator. The honeybees are then be moved to the cages and fed ad libitum with sucrose solution.
Disposable and well-ventilated cages with an internal volume not lower than 200 cm^3 are used. Each cage is equipped with a transparent lid, for a suitable observation of the bees from outside. The upper side of the cage has at least one hole for inserting the feeder: a syringe filled of 50% (w/v) aqueous sucrose solution is inserted in one hole.
The tests are conducted under the following conditions: (a) Temperature: 25.00[…]; (b) Relative humidity: 60.00[…], The honeybees are kept under constant darkness except during the assessments. Throughout the experimental phase, the temperature and relative humidity is continuously recorded with a dedicated data-logger with sensors located close to the test units.
The number of dead honeybees per cage is recorded after 4, 24 and 48 hours. If a prolonged observation period is required, further assessments are made every 24 hours, tip to a maximum duration of 96 hours. The amount of diet consumed per group is quantitatively estimated if treated diet will be left after 6 hours of exposure.
Data is summarized in tabular form, showing the number of live, dead and abnormal bees per experimental group. The mortality of each replicate is calculated as a percentage, comparing the number of dead bees to those introduced at the beginning. The mean value of the treated group is compared to the mean mortality of the respective control group(s) using the Abbott's formula modified by Schneider-Orelli (POS BT 200): […]

[4] = human hepatocytes, up to 240 min, 1 μM

Compound: N#Cc1nn(-c2c(Cl)cc(C(F)(F)F)cc2Cl)c2nc(O)cc(C(F)(F)F)c12 [Example 1, 1-(2,6-dichloro-4-(trifluoromethyl)phenyl)-6-hydroxy-4-(trifluoromethyl)-1H-pyrazolo[3,4-b]pyridine-3-carbonitrile]
- Accumulation in eggs of treated chickens compared to Fipronil [1]: substantially less accumulation in the eggs
- Original compound still present ([2]; after 240 minutes, 1 μM, 500,000 cells/mL, 37° C.): approximately 95.5%
- Metabolic stability (in words) [2, 4]: metabolically stable
- Metabolite peaks observed [2, 4]: no particular peaks indicative of metabolites
- % CM (4 hours) ([3]; group T1, dose 0.002 μg/bee): 0.0%
- % CM (24 hours) ([3]; group T1, dose 0.002 μg/bee): 7.1%
- % CM (48 hours) ([3]; group T1, dose 0.002 μg/bee): 0.0%
- % CM (4 hours) ([3]; group T2, dose 0.004 μg/bee): 0.0%
- % CM (24 hours) ([3]; group T2, dose 0.004 μg/bee): 0.0%
- % CM (48 hours) ([3]; group T2, dose 0.004 μg/bee): 0.0%
- % CM (4 hours) ([3]; group T3, dose 0.006 μg/bee): 0.0%
- % CM (24 hours) ([3]; group T3, dose 0.006 μg/bee): 50.0%
- % CM (48 hours) ([3]; group T3, dose 0.006 μg/bee): 57.7%
